5 molecules from US20250109140A1, “5-[5-(PIPERIDIN-4-YL)THIENO[3,2-C]PYRAZOL-2-YL]INDAZOLE DERIVATIVES AND RELATED COMPOUNDS AS MODULATORS FOR SPLICING NUCLEIC ACIDS AND FOR THE TREATMENT OF PROLIFERATIVE DISEASES” (REMIX THERAPUTICS INC., priority 2022, published 2025) can be followed below.

Assay [1] deals with SMN2 mRNA. Nature of the assay: Splicing RT-qPCR gene panel, SMN2 canonical junction (CJ) mRNA. In kind it is cell-based. Conditions: Homo sapiens; Table 8; larger gene panel, decrease in CJ mRNA levels. Put shortly:
(§1)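 Junction-specific RT-qPCR read-out: CJ marks canonical transcript, AJ marks alternative-exon inclusion, each normalized to GAPDH, GUSB or PPIA. Cells (A673 or K562) were dosed for 24 h with compound up to 10 uM final in 11 3-fold steps. RQ from 2^(−ΔΔCt) against DMSO became percentage response.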

The subject of assay [2] is HTT mRNA. Nature of the assay: Splicing RT-qPCR assay, HTT canonical (CJ) and alternative (AJ) junction mRNA. In kind it is cell-based. Conditions: Homo sapiens; for EC50: AC50 = 50% response in AJ mRNA increase. Put shortly: as §1
(Quantitative PCR measures a nucleic acid by following its amplification.)

Assay [3] concerns MYB mRNA. Nature of the assay: Splicing RT-qPCR assay, MYB canonical (CJ) and alternative (AJ) junction mRNA. In kind it is cell-based. Particulars: Homo sapiens; for EC50: AC50 = 50% response in AJ mRNA increase. In outline:
as §1

The test system of assay [4] is Target C mRNA. Nature of the assay: Splicing RT-qPCR gene panel, Target C canonical junction (CJ) mRNA. Particulars: Homo sapiens; Table 8; larger gene panel, decrease in CJ mRNA levels. It counts as cell-based. In outline:
as §1

The subject of assay [5] is Target C. Nature of the assay: HiBiT protein abundance assay, Target C (K562 HiBiT knock-in cells). It counts as cell-based, human. Particulars: 24 hours treatment. As for the experimental part: • Promega Nano-Glo HiBiT Lytic Detection System (cat #N3030) • Corning 384-well TC-treated microplates (cat #3570) • Synthego Engineered Cells Knock-In Clones
(§2) Cells were maintained in IMDM with 10% FBS. Before the assay, cells were diluted with […] growth media (IMDM+[…] media) and were seeded in a 384-well plate at a density of 10000 cells/well (for each cell line listed in Table 6). Each compound was prepared as a 10-point 3-fold serial dilution in DMSO with the top dose at a final concentration of […] in the well. Unmodified K562 cells were added at the previously specified density with DMSO to serve as an assay baseline and positive control (PC) and DMSO only with the respective modified cell lines was added to the negative control (NC) columns. Final DMSO concentration was kept at or below 0.25%. Treated cell plates were placed in an incubator at 37° C. with […] for 24 hours. After 24 hours, 25 μL of Complete HiflitLytic reagent was added to each well at room temperature (e.g. one plate requiring 10 mL Lytic Buffer, 100 μL LgBiT Protein, 200 μL Lytic Substrate), shaken for 5 minutes at 600 RPM, then left to sit for 10 minutes for signal to stabilize before reading on a Spark Cyto plate reader (Tecan) with a 500 ms measurement time.
(§3) To determine compound effects on protein abundance of each target in Table 6, the percent response for each respective cell line was calculated at each compound concentration as follows:
(§4) For the normalized response at each concentration, a four-parameter logistical regression was fit to the data and the response was interpolated at the 50% value to determine a concentration for protein abundance at 50% (IC50) the untreated control.
(HiBiT is a short tag that completes a luciferase, so light tracks the accessible tagged protein.)

Assay [6] has as its system HiBiT-tagged MYB protein. Nature of the assay: HiBiT protein abundance assay, MYB (K562 HiBiT knock-in cells). It counts as cell-based, human. Particulars: 24 hours treatment. How it is done: (§5) Compounds described herein were used to screen for effects on quantitative protein abundance using a HiBit assay system (Promega). Quantitative protein abundance was determined by measuring the protein levels of HiBit-tagged protein targets expressed in cell culture via luminescence using the Nano-Glo HiBiT Lytic Detection System, which uses a split complementation assay format to reconstitute NanoBiT enzyme to generate a luminescent signal. A protein abundance assay was developed such that endogenous protein targets could be modified with the HiBiT peptide tag and their abundance could be assessed after compound treatment. Briefly, K562 cell lines containing a HiBiT-modification were treated with various compounds described herein (e.g., compounds of Formulas (I), or (II)). After treatment for 24 hours, the protein abundance of a specific target was determined by measuring luminescence.
as §2, §3, §4

Assay [7] deals with HiBiT-tagged HTT protein. Nature of the assay: HiBiT protein abundance assay, HTT (K562 HiBiT knock-in cells). In kind it is cell-based, human. Particulars: 24 hours treatment. How it is done:
as §5, §2, §3, §4

The test system of assay [8] is K562 (human chronic myelogenous leukemia) cells. Nature of the assay: Cell viability, Cell Titer Glo 2.0 assay, K562 cells. It counts as cell-based. Conditions: 72 hours. As for the experimental part: Compounds described herein were screened for toxicity in K562 (human chronic myelogenous leukemia) and SH-SY5Y (human neuroblastoma) cells using a Cell Titer Glo 2.0 assay.
Cells were plated at 500 cells/well (K562 cells) in 45 μL of IMDM supplemented with 10% FBS in a 384-well opaque plate. Wells containing only medium were used as a blank control. Test compounds (e.g., compounds of Formula (I), (III), (IV), (V), or (VI)) were first serially diluted in DMSO then diluted 1:100 with IMDM+10% FBS. The final concentration of DMSO was 0.1% in each well. The cells were incubated for 72 hours at 37° C. and 5% CO2 before assaying with Cell Titer Glo 2.0 reagent.
Background: Cellular ATP, detected with luciferase, serves as a proxy for viable cell number.

[9] abbreviates: Table 7, RT-qPCR, A673 or K562 cells, 24 hours treatment.
Setting [10] is: Table 7, IC50 = 50% response in CJ mRNA decrease, RT-qPCR, A673 or K562 cells, 24 hours treatment, read-out: HTT CJ.
[11] abbreviates: Table 8, larger gene panel, decrease in CJ mRNA levels, read-out: HTT CJ IC50.
Where [12] appears, read: Table 7, IC50 = 50% response in CJ mRNA decrease, RT-qPCR, A673 or K562 cells, 24 hours treatment, read-out: MYB CJ.
Where [13] appears, read: Table 8, larger gene panel, decrease in CJ mRNA levels, read-out: MYB CJ IC50.

Like-named read-outs stand apart in the source and are kept apart here. A value given as a limit tells only on which side of the number the result lay.

The term EC50 denotes the midpoint of the concentration-response curve. High values mean weaker potency, low ones greater potency. On to `Cn1cc2cc(-c3cc4nn(C5CCNCC5)cc4s3)cc(F)c2n1` [Compound 121, 7-fluoro-2-methyl-5-[2-(piperidin-4-yl)thieno[3,2-c]pyrazol-5-yl]indazole], for which the IC50 in assay [1] is less than 0.1 µM; in assay [2] (setting [10]), less than 0.1 µM; in assay [2] (setting [11]), 0.1 to 1 µM; in assay [3] (setting [12]) it was 0.1 to 1 µM; in assay [3] (setting [13]), 0.1 to 1 µM; in assay [4], less than 0.1 µM. Moreover, the IC50 is less than 0.1 µM in assay [5], 0.1 to 1 µM in assay [6] and less than 0.1 µM in assay [7]. For the same molecule, the EC50 in assay [2] (setting [9]) and in assay [3] (setting [9]) was 0.1 to 1 µM throughout.

On to `Cn1cc2cc(-c3cc4cn(C5CCNCC5)nc4s3)cc(F)c2n1` [Compound 122, 7-fluoro-2-methyl-5-[2-(piperidin-4-yl)thieno[2,3-c]pyrazol-5-yl]indazole], for which the IC50 is less than 0.1 µM in assay [1]; less than 0.1 µM in assay [2] (setting [10]); less than 0.1 µM in assay [2] (setting [11]); less than 0.1 µM in assay [3] (setting [12]); 0.1 to 1 µM in assay [3] (setting [13]); less than 0.1 µM in assay [4]. For the same molecule, the IC50 in assay [5], in assay [6], in assay [8] and in assay [7] was less than 0.1 µM each time. The EC50 is less than 0.1 µM in assay [2] (setting [9]) and 0.1 to 1 µM in assay [3] (setting [9]).

Turning to `CN(c1cc2nn(-c3ccc(-c4cn[nH]c4)cc3O)cc2s1)[C@@H]1C[C@H]2CC[C@@H](C1)N2` [Compound 148, 2-[5-[(1R,3R,5S)-8-azabicyclo[3.2.1]octan-3-yl(methyl)amino]thieno[3,2-c]pyrazol-2-yl]-5-(1H-pyrazol-4-yl)phenol], the IC50 in assay [1] was 1 to 10 µM; in assay [2] (setting [10]) it was 1 to 10 µM; in assay [2] (setting [11]), 1 to 10 µM; in assay [3] (setting [12]), more than 10 µM; in assay [3] (setting [13]) it was 1 to 10 µM; in assay [4] it was more than 10 µM. Also, the IC50 in assay [5], in assay [6], in assay [8] and in assay [7] was 1 to 10 µM in each case. For the same molecule, the EC50 in assay [2] (setting [9]) and in assay [3] (setting [9]) was 1 to 10 µM each time.

`CCN1CCC(n2cc3cc(-c4cc(F)c5nn(C)cc5c4)sc3n2)CC1` [Compound 149, 5-[2-(1-ethylpiperidin-4-yl)thieno[2,3-c]pyrazol-5-yl]-7-fluoro-2-methylindazole]: the IC50 in assay [1] was less than 0.1 µM; in assay [2] (setting [10]), less than 0.1 µM; in assay [2] (setting [11]) it was less than 0.1 µM; in assay [3] (setting [12]) it was 0.1 to 1 µM; in assay [3] (setting [13]), 0.1 to 1 µM; in assay [4] it was 0.1 to 1 µM. Besides, the IC50 in assay [5] is 0.1 to 1 µM; in assay [6] it was 0.1 to 1 µM; in assay [8], 0.1 to 1 µM; in assay [7] it was less than 0.1 µM. Further, the EC50 in assay [2] (setting [9]) was less than 0.1 µM; in assay [3] (setting [9]), 0.1 to 1 µM.

As for `Cc1cn2cc(-n3cc4sc(C5CCNCC5)cc4n3)cc(C)c2n1` [Compound 173], the IC50 in assay [1] is 1 to 10 µM; in assay [2] (setting [10]), 1 to 10 µM; in assay [2] (setting [11]) it was 1 to 10 µM; in assay [3] (setting [12]), more than 10 µM; in assay [3] (setting [13]), more than 10 µM; in assay [4] it was more than 10 µM. In addition, the IC50 in assay [8] fell in the range of 1 to 10 µM. The EC50 in assay [2] (setting [9]) was 1 to 10 µM; in assay [3] (setting [9]), more than 10 µM.
